Assay results reported in US9212204B2, “Treatment of rett syndrome using glycyl-L-2-methylprolyl-L-glutamic acid” (priority 2011, dated 2015).
Non-standard residues stand in square brackets, D forms with d. Residues, ends and D or L forms follow the SMILES beside them. αMeP = C[C@@]1(C(=O)O)CCCN1

Experiments:
[1] = tested on: adult MeCP2+/- female mice; assay: Optical imaging of intrinsic signals, ocular dominance plasticity; format: in vivo, mouse; details: monocularly deprived for 4 days, treated concurrently; aged P60 or more
Procedure: For the survival measurements, the nocturnal activity analysis and the immunoblot analysis, G-2-MePE (synthesised Albany Molecular Research Inc. (Albany, N.Y.) and supplied by Neuren Pharmaceuticals Limited) is administered daily via intra-peritoneal injections (20 mg/kg, vehicle=saline, 0.01% BSA). The treatment starts at PI 5 and is maintained throughout the course of the experiments. For intracellular physiology experiments, the mice are injected daily with G-2-MePE (20 mg/kg body weight, vehicle=saline, 0.01% BSA) for 2 weeks, from P15 to P28-P32 when they are used for acute slice preparation. For optical imaging experiments, mice are injected with G-2-MePE (20 mg/kg body weight, vehicle=saline, 0.01% BSA) daily from the day of the lid suture to the day of imaging.
Adult (>P60) wild type (SVEV or BL6) and MeCP2 (+/−) mutant females (BL6) are used for this experiment. The wild type control group is composed of both wild type littermates of MeCP2+/− females or wild type age matched SVEV females. For monocular deprivation, animals are anesthetized with Avertin (0.016 ml/g) and the eyelids of one eye is sutured for 4 days. […] During the imaging session, the animal is constantly oxygenated, its temperature maintained with a heating blanket and the eyes periodically treated with silicone oil; physiological conditions are constantly monitored. […]

[2] = tested on: hippocampal CA1 neurons of mecp2 null mutant mice; assay: Golgi staining, dendrite morphology in mecp2 knockout mice; format: in vivo, mouse
Procedure: We assess the effects of G-2-MePE treatment on dendrites. Transgenic mecp2 knockout mice (n=15 to 20) were administered G-2-MePE intraperitoneally at a dose of 20 mg/kg once daily. Following sacrifice dendritic spine density, spine length and aborization were examined after Golgi staining after nine weeks, as per the Table 1 below:
Dendritic length was assessed by distance from the soma of representative hippocampal CA1 neurons from 9 week old male mecp2 null mutant mice treated with either saline (3 neurons analysed from 3 separate mice, n=9) or G-2-MePE (20 mg/kg i.p. 1/day, from week 4; 3 neurons analysed from 3 separate mice, n=9).

[3] = 20 mg/kg i.p. once daily, 9 weeks of age

**Q.** How did the OD plasticity [1] turn out when `C[C@@]1(C(=O)N[C@@H](CCC(=O)O)C(=O)O)CCCN1C(=O)CN` [Example G-2-MePE, Glycyl-L-2-methylprolyl-L-glutamic acid] (H-Gly-[αMeP]-Glu-OH) was run?
**A.** The OD plasticity was “reduces”.

**Q.** And the “dendritic length as a function of distance from the soma” value ([2]; 20 mg/kg i.p. 1/day from week 4, vs saline, FIG. 24)?
**A.** The value was “longer dendrites”.

**Q.** What about the dendritic arborization [2, 3] of the same molecule?
**A.** Its dendritic arborization is “improved”.

**Q.** And the dendritic spine length [2, 3]?
**A.** The dendritic spine length was “increased”.
